Measured values: ChEMBL document CHEMBL5576088, “Skin- and airway-deliverable TRPA1 inhibitor” (Bioorg Med Chem, 2024)
pIC50: −log10 of the molar value. Calls of active or inactive are those of the source. No cut-off for these calls is given here.

Key:
[1] = biological target: T1, Transient receptor potential cation channel subfamily A member 1 (Homo sapiens, UniProt O75762); experiment: Antagonist activity at human TRPA1 expressed in HEK293T cells assessed as inhibition of AITC-induced current by whole cell patch clamp analysis; assay type: cell-based
T1 sequence (O75762 whole entry): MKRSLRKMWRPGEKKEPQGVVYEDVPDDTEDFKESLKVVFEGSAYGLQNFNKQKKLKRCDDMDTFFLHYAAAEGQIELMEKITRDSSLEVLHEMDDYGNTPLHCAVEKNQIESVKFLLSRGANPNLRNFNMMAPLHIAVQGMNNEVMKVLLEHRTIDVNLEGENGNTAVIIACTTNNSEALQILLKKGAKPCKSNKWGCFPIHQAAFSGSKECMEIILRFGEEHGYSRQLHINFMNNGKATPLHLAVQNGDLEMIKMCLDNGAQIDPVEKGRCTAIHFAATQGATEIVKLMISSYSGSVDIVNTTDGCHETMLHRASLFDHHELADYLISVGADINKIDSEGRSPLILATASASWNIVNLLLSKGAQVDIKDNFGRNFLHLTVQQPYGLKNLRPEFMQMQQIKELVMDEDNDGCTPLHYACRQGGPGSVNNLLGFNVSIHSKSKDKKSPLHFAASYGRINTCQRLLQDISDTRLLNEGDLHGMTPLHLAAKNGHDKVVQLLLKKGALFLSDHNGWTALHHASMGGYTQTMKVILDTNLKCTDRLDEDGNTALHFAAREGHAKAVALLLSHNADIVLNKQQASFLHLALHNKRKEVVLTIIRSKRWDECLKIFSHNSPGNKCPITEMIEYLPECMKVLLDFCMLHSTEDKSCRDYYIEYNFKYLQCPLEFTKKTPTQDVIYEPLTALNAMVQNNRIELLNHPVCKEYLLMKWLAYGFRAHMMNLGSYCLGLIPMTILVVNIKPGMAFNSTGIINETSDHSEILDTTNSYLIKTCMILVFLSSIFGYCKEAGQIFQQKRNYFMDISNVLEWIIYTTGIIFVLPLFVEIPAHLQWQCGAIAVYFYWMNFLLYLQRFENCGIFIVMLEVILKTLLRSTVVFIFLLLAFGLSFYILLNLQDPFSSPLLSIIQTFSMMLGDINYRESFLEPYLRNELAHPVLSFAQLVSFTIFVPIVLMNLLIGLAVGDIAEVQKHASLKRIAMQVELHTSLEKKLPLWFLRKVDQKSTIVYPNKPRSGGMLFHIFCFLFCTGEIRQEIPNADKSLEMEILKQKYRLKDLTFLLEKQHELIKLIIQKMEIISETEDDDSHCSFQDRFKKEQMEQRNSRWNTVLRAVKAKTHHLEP

[2] = biological target: T1, Transient receptor potential cation channel subfamily A member 1; experiment: Antagonist activity at wildtype human TRPA1 expressed in HEK293 cells assessed as inhibition of AITC-induced intracellular Ca2+ flux at 100 uM in presence of 5 uM AITC by Fluo4-AM dye based fluorescence analysis; assay type: cell-based; settings: filed as antagonist
[3] = biological target: T1, Transient receptor potential cation channel subfamily A member 1; experiment: Antagonist activity at human TRPA1 expressed in HEK293 cells assessed as inhibition of AITC-induced intracellular Ca2+ flux in presence of 5 uM AITC by Fluo4-AM dye based fluorescence analysis; assay type: cell-based
[4] = biological target: T1, Transient receptor potential cation channel subfamily A member 1; experiment: Antagonist activity at full length human TRPA1 expressed in HEK293 cells assessed as inhibition of AITC-induced intracellular Ca2+ flux in presence of 10 uM AITC by Fluo4-AM dye based fluorescence analysis; assay type: cell-based
Homo sapiens = experiment: Inhibition of methylparaben/phenoxyethanol-induced sensory irritation in human at 0.2% applied topically and measured for 8 mins; assay type: functional, organism-based; settings: route top

## CC1(C)[C@@H]2CC[C@@]1(C)[C@](C)(O)C2
[1]
  pIC50: 3.92

## CC(C)c1ccc(NC(=O)Cn2cnc3c2c(=O)n(C)c(=O)n3C)cc1
[2]
  Activity: Active

## CC(CO)C(C)Cc1ccccc1 (mixture of isomers)
[3]
  pIC50: 4.77

## CCC(O)C(C)Cc1ccccc1 (mixture of isomers)
[3]
  pIC50: 4.66

## CC(CCO)CC(C)c1ccccc1 (mixture of isomers)
[3]
  pIC50: 4.70

## C/C(=C\C(C)c1ccccc1)CO (racemic)
[3]
  pIC50: 4.49

## CC1(C)C2CCC1(C)C(O)C2 (racemic) [BORNEOL]
[4]
  pIC50: 3.28
Homo sapiens
  inhibition: inactive

## CC(=C\c1ccc(Cl)cc1)/C(C)=N/O [AP18 5]
[4]
  pIC50: 5.76
[2]
  Activity: Active
